Holding throughout (assay type): cell-based, human
Data set [1] concerns ERG-positive prostate cancer cell line VCaP. Briefly: Bead-array gene expression with GSEA of MSigDB pathways. The protocol:
Gene expression analysis by bead-arrays. Early passage VCaP and LNCaP cells were grown to approximately 70% confluence before treatments with 300 nM trichostatin A (Sigma) or 500 nM MS-275 (Sigma) for 6 and 12 hours. For androgen ablation, the cells were plated in androgen-deprived medium. 300 nM trichostatin A (Sigma) or 500 nM MS-275 (Sigma) were added for 6 hours and 12 hours before harvesting. Hormone-replacement treatment was performed by supplementing the full RPMI 1640 medium with 10% charcoal-stripped serum. Total RNA was extracted according to the manufacturer's protocol using Trizol reagent (Invitrogen, Carlsbad, Calif.). Integrity of the RNA prior to hybridization was monitored using a Bioanalyzer 2100 (Agilent, Santa Clara, Calif.) (according to manufacturer's instruction). […] The arrays were scanned with the BeadArray Reader (Illumina).
Statistical analysis. The raw data was quantile-normalized and analyzed by using the R/Bioconductor software (http://www.r-project.org/, http://www.bioconductor.org/). Mean for ERG signature genes for at least two replicates per condition was calculated and the treatment values were extracted from controls to illustrate the fold changes presented on Table 5. […]

The subject of data set [2] is DuCaP prostate cancer cell. Kind of data set: Cell titer blue assay of cell number after TSA treatment. The note with it: 48 h incubation, 384-well plates 2000 cells/well. How it is done:
(§1) FIG. 6. Analysis of the effect of Trichostatin A (TSA) treatment on VCaP and DuCaP prostate cancer cell number by using cell titer blue assay. Briefly, cells were plated in low concentration on 384-well plates (2000 cells/well) and let to attach overnight. Drug containing medium was added and CTB assay measurement with Envision Plate reader were done after 48 h incubation. […] For drawing the figure, cell culture medium only containing well intensities were extracted from actual measurements. Each data point is represented by the mean value of three independent measurements (mean+S.D.). Drug concentrations are presented on x-axis and relative cell number (control level set to 1) on y-axis. Statistical significance ([…]) of the differences between cell amounts in treated wells in comparison to untreated control wells is indicated with star using Student's t-test assuming that the data is unpaired and variance is unequal.
In general terms: The colour change of resazurin is a common sign of viable cells or microbes.

In data set [3] the test system is VCaP prostate cancer cell. The data set is described as above. The note with it: 48 h incubation, 384-well plates 2000 cells/well. The protocol:
as §1

The test system of the next data set is ERG gene signature. Briefly: Bead-array gene expression with GSEA of ERG gene signature reversal. The following applies: 12 h treatment, 300 nM TSA or 500 nM MS-275. How it is done: Gene expression analysis by bead-arrays. Early passage VCaP and LNCaP cells were grown to approximately 70% confluence before treatments with 300 nM trichostatin A (Sigma) or 500 nM MS-275 (Sigma) for 6 and 12 hours. For androgen ablation, the cells were plated in androgen-deprived medium. 300 nM trichostatin A (Sigma) or 500 nM MS-275 (Sigma) were added for 6 hours and 12 hours before harvesting. Hormone-replacement treatment was performed by supplementing the full RPMI 1640 medium with 10% charcoal-stripped serum. Total RNA was extracted according to the manufacturer's protocol using Trizol reagent (Invitrogen, Carlsbad, Calif.). Integrity of the RNA prior to hybridization was monitored using a Bioanalyzer 2100 (Agilent, Santa Clara, Calif.) (according to manufacturer's instruction). 500 ng of purified total RNA was amplified with the TotalPrep Kit (Ambion, Austin, Tex.) and the biotin labelled cRNA was hybridized to Sentrix HumanRef-8 Expression BeadChips (Illumina, San Diego, Calif.). The arrays were scanned with the BeadArray Reader (Illumina).
Statistical analysis. The raw data was quantile-normalized and analyzed by using the R/Bioconductor software (http://www.r-project.org/, http://www.bioconductor.org/). Mean for ERG signature genes for at least two replicates per condition was calculated and the treatment values were extracted from controls to illustrate the fold changes presented on Table 5. Gene set enrichment analysis (GSEA) was performed for the HDAC inhibitor treatment and androgen ablation data with the GSEA software v2.0.1 (http://www.broad.mit.edu/gsea/). Our own previously defined ERG gene signature was used to evaluate the statistical significance of the signature reversal by HDAC inhibitors and androgen ablation (Table 6.). MSigDB gene sets were used for studying the pathways affected by HDAC inhibitors TSA and MS-275 in ERG-positive prostate cancer cell line VCaP (FIGS. 12 and 13).

Consider 2 compounds from US20100215638A1, “METHOD FOR TREATMENT OF PROSTATE CANCER AND SCREENING OF PATIENTS BENEFITING FROM SAID METHOD” (VALTION TEKNILLINEN TUTKIMUSKESKUS, priority 2006, published 2010).

Where two headings read alike, the source gives them in different places.

Regarding `Nc1ccccc1NC(=O)c1ccc(CNC(=O)OCc2cccnc2)cc1` [MS-275], in data set [1], the “effect on pathways associated to ERG-positive prostate tumors” value is “reverses the pathways associated to ERG-positive prostate tumors”.

As for `CC(/C=C/C(=O)NO)=C\[C@@H](C)C(=O)c1ccc(N(C)C)cc1` [TSA, Trichostatin A], the “effect on cell number (relative cell number, cell titer blue assay)” value in data set [2] is “clear dose dependent growth inhibition”; in data set [2] (listed as Trichostatin A) it was “strong responses”; in data set [3], “clear dose dependent growth inhibition”; in data set [3] (listed as Trichostatin A), “strong responses”. For the same compound, the “ES (Enrichement score)” value in the data set with ERG gene signature was −0.75. In addition, the “Gene set (number of genes showing core enrichment/total number of genes in the ERG gene set)” value in the data set on ERG gene signature is 29/47. For the same compound, the “NES (Normalized enrichment score)” value in the data set with ERG gene signature is −1.63. Moreover, the “effect on pathways associated to ERG-positive prostate tumors” value in data set [1] (VCaP, GSEA with MSigDB gene sets) was “reverses the pathways associated to ERG-positive prostate tumors”.
